Test results reported in patent US11096985B2, “Antimicrobial peptides, their variants and uses” (priority 2015, dated 2021).
Where a SMILES comes first, the peptide text is derived from it. [ ]: non-standard residue; d: D form.

Assays:
[1] = tested on: clinical strains of Candida albicans; assay: MIC, clinical yeast strains, Candida albicans; type: cell-based; parameters: unit: μg/ml
Procedure: (§1) Minimum inhibition concentrations (MICs) were determined against Escherichia coli (ATCC 25922), Staphylococcus aureus (ATCC 25923), Klebsiella pneumoniae (ATCC 10031) and Pseudomonas aeruginosa (ATCC 27853). Also clinical strains of E. coli, K. pneumoniae, E. cloacae, P. aeruginosa, Serratia marcescens, Proteus mirabilis, S. pneumoniae, Acinetobacter baumannii, A. johnsonii and S. aureus were used for MICs assays. Additionally, clinical strains of yeast including Candida albicans, C. glabrata, C. parapsilosis and C. quillermondiae were used. The susceptibility of these microorganisms to Chain peptides were determined using micro broth dilution assay. Colonies of the respective microorganism from Muller Hinton (MH) agar plates incubated overnight were suspended in MH broth media and final concentration of microorganism was adjusted to 5.0×10^5 cfu/ml. An aliquot of 10 μl of each Chain peptide, or gentamicin, tetracycline as reference antibiotics were added in differing concentrations along with 90 μl of bacterial suspension to 96 well polypropylene plates and incubated at 37° C. for 20 to 24 hours. Concentrations of Chain peptides and reference antibiotics ranged from 0.125 to 128 μg/ml and the MICs were recorded as the lowest concentration with no visual growth of bacteria. Similarly, antifungal MICs were tested in Potato dextrose broth.
(§2) Clinical strains of yeasts including Candida albicans, C. glabrata, C. parapsilosis and C. quillermondiae were also tested with the 12 Chain peptides. The minimum inhibitory concentration (MICs) varied between these peptides and are presented in Tables 4a, 4b, 4c and 5a, 5b, 5c. Peptides Chain 105, 201 and 308 are broad spectrum antimicrobials with MICs between 0.5-32 μg/ml against all the bacteria and yeasts tested, except Serratia marcescens and Proteus mirabilis, against which the MICs were between 64-128 μg/ml. Peptide Chain 306 has narrow spectrum activity against E.coli at 1 μg/ml and for the rest of the bacterial strains at >32 μg/ml (FIG. 10).

[2] = tested on: clinical strains of Escherichia coli; assay: MIC, clinical strains of E. coli; type: cell-based; parameters: unit: μg/ml; details: microdilution, Muller Hinton broth-cation adjusted, 0.02% BSA, 0.2% acetic acid
Procedure: as §1, §2

[3] = tested on: clinical strains of Streptococcus pneumoniae; assay: MIC, clinical strains of Streptococcus pneumoniae; type: cell-based; parameters: unit: µg/mL; details: microdilution, Muller Hinton broth-cation adjusted, 0.02% BSA, 0.2% acetic acid
Procedure: as §1, §2

[4] = tested on: clinical strains of Pseudomonas aeruginosa; assay: MIC, clinical strains of P. aeruginosa; type: cell-based; parameters: unit: μg/ml; details: microdilution, Muller Hinton broth-cation adjusted, 0.02% BSA, 0.2% acetic acid
Procedure: as §1, §2

[5] = tested on: clinical strains of Enterobacter cloacae; assay: MIC, clinical strains of Enterobacter cloacae; type: cell-based; parameters: unit: μg/ml; details: microdilution, Muller Hinton broth-cation adjusted, 0.02% BSA, 0.2% acetic acid
Procedure: as §1, §2

[6] = tested on: clinical strains of C. glabrata; assay: MIC, clinical yeast strains, C. glabrata; type: cell-based, Candida glabrata; parameters: unit: μg/ml
Procedure: as §1, §2

[7] = tested on: clinical strains of C. quillermondiae; assay: MIC, clinical yeast strains, C. quillermondiae; type: cell-based; details: C. quillermondiae clinical yeast strain 1
Procedure: as §1, §2

[8] = tested on: clinical strains of C. parapsilosis; assay: MIC, clinical yeast strains, C. parapsilosis; type: cell-based, Candida parapsilosis; parameters: unit: μg/ml
Procedure: as §1, §2

[9] = tested on: clinical strains of Staphylococcus aureus; assay: MIC, clinical strains of S. aureus; type: cell-based; parameters: unit: μg/ml; details: microdilution, Muller Hinton broth-cation adjusted, 0.02% BSA, 0.2% acetic acid
Procedure: as §1, §2

[10] = tested on: clinical strains of Proteus mirabilis; assay: MIC, clinical strains of Proteus mirabilis; type: cell-based; parameters: unit: µg/mL; details: microdilution, Muller Hinton broth-cation adjusted, 0.02% BSA, 0.2% acetic acid
Procedure: as §1, §2

[11] = tested on: clinical strains of Serratia marcescens; assay: MIC, clinical strains of Serratia marcescens; type: cell-based; parameters: unit: µg/mL; details: microdilution, Muller Hinton broth-cation adjusted, 0.02% BSA, 0.2% acetic acid
Procedure: as §1, §2

[12] = tested on: clinical strains of Klebsiella pneumoniae; assay: MIC, clinical strains of K. pneumoniae; type: cell-based; parameters: unit: μg/ml; details: microdilution, Muller Hinton broth-cation adjusted, 0.02% BSA, 0.2% acetic acid
Procedure: as §1, §2

For `CC[C@@H](C)[C@@H](N)C(=O)N[C@H](Cc1c[nH]c2ccccc12)C(=O)N[C@H](CCCCN)C(=O)N[C@H](CCCNC(=N)N)C(=O)N[C@H](Cc1ccccc1)C(=O)N[C@H](CCCNC(=N)N)C(=O)N[C@H](CC(C)C)C(=O)N[C@H](Cc1ccccc1)C(=O)N[C@H](CCCCN)C(=O)N[C@H](CCCCN)C(=O)N[C@H](Cc1c[nH]c2ccccc12)C(=O)O` [Chain304D] (H-[dI][dW][dK][dR][dF][dR][dL][dF][dK][dK][dW]-OH), the Minimum inhibitory concentration ([1]; Candida albicans clinical yeast strain 1) was 16, the Minimum inhibitory concentration ([1]; Candida albicans clinical yeast strain 2) was 16 and the Minimum inhibitory concentration ([1]; Candida albicans clinical yeast strain 3) was 16. The Minimum inhibitory concentration ([1]; Candida albicans clinical yeast strain 4) was 16, the Minimum inhibitory concentration ([1]; Candida albicans clinical yeast strain 5) was 32 and the Minimum inhibitory concentration ([2]; Escherichia coli clinical strain 1) was 1. The Minimum inhibitory concentration ([2]; Escherichia coli clinical strain 2) was 16, the Minimum inhibitory concentration ([2]; Escherichia coli clinical strain 3) was 16 and the Minimum inhibitory concentration ([2]; Escherichia coli clinical strain 4) was 32. The Minimum inhibitory concentration ([2]; Escherichia coli clinical strain 5) was 32, the Minimum inhibitory concentration ([3]; Streptococcus pneumoniae clinical strain 1) was 128 and the Minimum inhibitory concentration ([3]; Streptococcus pneumoniae clinical strain 2) was 128. The Minimum inhibitory concentration ([3]; Streptococcus pneumoniae clinical strain 3) was 128, the Minimum inhibitory concentration ([3]; Streptococcus pneumoniae clinical strain 4) was 128 and the Minimum inhibitory concentration ([3]; Streptococcus pneumoniae clinical strain 5) was 64. It also gave a Minimum inhibitory concentration ([4]; Pseudomonas aeruginosa clinical strain 1) of 32, a Minimum inhibitory concentration ([4]; Pseudomonas aeruginosa clinical strain 2) of 64 and a Minimum inhibitory concentration ([4]; Pseudomonas aeruginosa clinical strain 3) of 64. For the same compound, the Minimum inhibitory concentration ([4]; Pseudomonas aeruginosa clinical strain 4) was 64, the Minimum inhibitory concentration ([4]; Pseudomonas aeruginosa clinical strain 5) was 16 and the Minimum inhibitory concentration ([5]; Enterobacter cloacae clinical strain 1) was 64. For the same compound, the Minimum inhibitory concentration ([5]; Enterobacter cloacae clinical strain 2) was 64, the Minimum inhibitory concentration ([5]; Enterobacter cloacae clinical strain 3) was 128 and the Minimum inhibitory concentration ([5]; Enterobacter cloacae clinical strain 4) was 128. The Minimum inhibitory concentration ([5]; Enterobacter cloacae clinical strain 5) was 32, the Minimum inhibitory concentration ([6]; C. glabrata clinical yeast strain 1) was 16 and the Minimum inhibitory concentration ([6]; C. glabrata clinical yeast strain 2) was 16. For the same compound, the Minimum inhibitory concentration ([6]; C. glabrata clinical yeast strain 3) was 8, the Minimum inhibitory concentration ([6]; C. glabrata clinical yeast strain 4) was 64 and the Minimum inhibitory concentration [7] was 16. For the same compound, the Minimum inhibitory concentration ([8]; C. parapsilosis clinical yeast strain 1) was 64, the Minimum inhibitory concentration ([8]; C. parapsilosis clinical yeast strain 2) was 64 and the Minimum inhibitory concentration ([8]; C. parapsilosis clinical yeast strain 3) was 32. The Minimum inhibitory concentration ([8]; C. parapsilosis clinical yeast strain 4) was 16, the Minimum inhibitory concentration ([9]; Staphylococcus aureus clinical strain 1) was 32 and the Minimum inhibitory concentration ([9]; Staphylococcus aureus clinical strain 2) was 32. For the same compound, the Minimum inhibitory concentration ([9]; Staphylococcus aureus clinical strain 3) was 16, the Minimum inhibitory concentration ([9]; Staphylococcus aureus clinical strain 4) was 16 and the Minimum inhibitory concentration ([9]; Staphylococcus aureus clinical strain 5) was 16. The Minimum inhibitory concentration ([10]; Proteus mirabilis clinical strain 1) was over 128, the Minimum inhibitory concentration ([10]; Proteus mirabilis clinical strain 2) was over 128 and the Minimum inhibitory concentration ([10]; Proteus mirabilis clinical strain 3) was over 128. The Minimum inhibitory concentration ([10]; Proteus mirabilis clinical strain 4) was over 128, the Minimum inhibitory concentration ([10]; Proteus mirabilis clinical strain 5) was over 128 and the Minimum inhibitory concentration ([11]; Serratia marcescens clinical strain 1) was over 128. For the same compound, the Minimum inhibitory concentration ([11]; Serratia marcescens clinical strain 2) was over 128, the Minimum inhibitory concentration ([11]; Serratia marcescens clinical strain 3) was over 128 and the Minimum inhibitory concentration ([11]; Serratia marcescens clinical strain 4) was over 128. For the same compound, the Minimum inhibitory concentration ([11]; Serratia marcescens clinical strain 5) was over 128, the Minimum inhibitory concentration ([12]; Klebsiella pneumoniae clinical strain 1) was over 128 and the Minimum inhibitory concentration ([12]; Klebsiella pneumoniae clinical strain 2) was over 128. For the same compound, the Minimum inhibitory concentration ([12]; Klebsiella pneumoniae clinical strain 3) was over 128, the Minimum inhibitory concentration ([12]; Klebsiella pneumoniae clinical strain 4) was over 128 and the Minimum inhibitory concentration ([12]; Klebsiella pneumoniae clinical strain 5) was 64.
